{"source": "patent US20130045991A1", "about": "“NEUROPROTECTIVE MODULATION OF NMDA RECEPTOR SUBTYPE ACTIVITIES” (THE UNIVERSITY OF BRITISH COLUMBIA, priority 2005, published 2013)", "key": {"[1]": {"test_system": "middle cerebral artery occlusion (MCAo)", "assay": "MCAo focal ischemic stroke model, pretreatment", "type": "in vivo, rat", "conditions": "for neurological function (behavioral tests) / infarct area: i.v. 30 min before 1-h MCAo; for neurological function (behavioral tests): 24 h after onset; for infarct area: NVP-AAM077 2.4 mg/kg, Ro 25-6981 6 mg/kg, 24 h", "experimental": "This aspect of the invention was also illustrated in vivo using a rat focal ischemic stroke model—middle cerebral artery occlusion (MCAo) (Aarts et al., 2002; Bederson et al., 1986). We first infused NVP-AAM077 (2.4 mg/kg), Ro 25-6981 (6 mg/kg (Loschmann et. al., 2004)) or vehicle (saline) intravenously in the rats 30 min prior to stroke onset. The animals were then subjected to a 1-h transient ischemic stroke induced by MCAo. This relatively short duration of ischemia was chosen to unmask the potential neuroprotective effects mediated by NR2A-containing receptors activated during the stroke challenge. Neurological score and cerebral infarction were examined 24 h after the MCAo onset. […] Together, these observations indicate that both NR2A- and NR2B-containing NMDA receptor subtypes are activated during stroke, exerting opposing effects on ischemic brain damage.\n(§1) Transient cerebral focal ischemia was produced by middle cerebral artery occlusion (MCAo) as described (Aarts et al., 2002; Bederson et al., 1986; Longa et al., 1989). Briefly, male Sprague-Dawley rats (Charles River Laboratories) weighing ˜300 g were anesthetized and MCAo was achieved by introducing a 3-0 monofilament suture into the MCA via the internal carotid artery. Body temperature was maintained at 37.0±0.5° C., and blood pressure and blood gases were monitored during the experiments. Animals were sacrificed 24 h following MCAo onset. Cerebral infarction was analyzed using brain sections stained with hematoxylin and eosin (H & E) or 2,3,5-triphenyltetrazolium chloride (TTC). 10 min before the animals were sacrificed, two tests, the postural reflex test to examine upper body posture (Bederson et al., 1986) and the forelimb placing test to examine sensorimotor integration in forelimb placing responses to visual, tactile, and proprioceptive stimuli (De Ryck et al., 1989), were performed to grade neurological function on a scale of 0 to 12 (0=normal, 12=worst). In the pretreatment study, a single bolus of drugs (NR2A-specific antagonist NVP-AAM077 (2.4 mg/kg) or NR2B specific antagonist Ro 25-6981 (6 mg/kg) or vehicle (saline)) was infused intravenously 30 min before a 1-h MCAo. For post-treatment experiments, animals were subjected to a 1.5-h MCAo and drug treatments (glycine, 800 mg/kg; NVP-AAM077 and Ro 25-6981 at the same doses as in the pretreatment study) were then given via intraperitoneal injection (i.p.) 3 h after reperfusion (4.5 h after the onset of MCAo)."}, "[2]": {"test_system": "middle cerebral artery occlusion (MCAo)", "assay": "MCAo focal ischemic stroke model, post-ischemic treatment", "type": "in vivo, rat", "conditions": "for effect of co-administration on the glycine effect (infarct volume reduction): co-administered with glycine 800 mg/kg 4.5 h after stroke onset", "excerpt": "In some clinical settings, it is desirable to implement therapy after the onset of neuronal injury, such as stroke or other ischemic events.\nas §1\nThe activating effect on NR2A-containing receptors was mimicked with the application of the NMDA receptor co-agonist glycine in the presence of an […] NR2B antagonist. Glycine by itself potentiates the function of NMDA receptors that are activated by endogenously released glutamate from presynaptic terminals both in vitro and in vivo (Johnson et al., 1987; Lu et al., 2001; De et al., 2000)."}, "[3]": {"test_system": "cortical cultures", "assay": "Oxygen and glucose deprivation (OGD), in vitro stroke model", "type": "cell-based, rat", "conditions": "1 h OGD; NVP-AAM077 0.4 μM or Ro 25-6981 0.5 μM; apoptosis 20 h after OGD", "excerpt": "Taking advantage of the finding of the opposing roles of NR2A- and NR2B-containing NMDA receptors in mediating cell survival and death, one aspect of the invention involves modulating the activity of the two subpopulations of receptors to ameliorate neuronal injury following acute brain insults, such as stroke and brain trauma. To illustrate this aspect of the invention, we employed a well-characterized in vitro stroke model, oxygen and glucose deprivation (OGD) (Goldberg et al., 1993; Aarts et al., 2002). Cortical cultures of 11-14 DIV were exposed to an anaerobic atmosphere for 1 h in a glucose-free solution in the absence or the presence of either NVP-AAM077 (0.4 μM) or Ro 25-6981 (0.5 μM). Neuronal apoptosis was quantitatively determined 20 h after OGD.\nTo visualize injured neurons, Hoechst-33342 (10 μg/ml) was added to the culture medium 20 h after treatments and incubated for 45 min at 37 °C. Images were taken with a Leica DMIRE2 fluorescence microscope. Quantitative assessment of neuronal apoptosis was performed 20 h following treatments using a Cell Death Detection ELISAPLUS Kit (Roche Applied Science). Absorbance readings were determined using a spectrophotometric microplate reader. Data analyses were carried out according to the manufacturer's instructions. Data are expressed as the difference in apoptosis relative to control and are expressed as a percentage. […]"}, "[4]": {"test_system": "synaptic NMDA receptors", "assay": "mEPSC recording, NMDA receptor-mediated component", "type": "cell-based, rat"}, "[5]": {"test_system": "Akt (phospho-Ser473)", "assay": "Western blotting of Akt phosphorylation after NMDA treatment", "type": "cell-based, rat", "conditions": "NMDA-treated neurons, western blot", "experimental": "Twelve hours after treatments, proteins were extracted from neurons using a lysis buffer composed of 150 mM NaCl, 50 mM Tris (pH 7.4), 0.1% SDS, 1% NP-40, 0.5% sodium deoxycholate, 1 mM EDTA, 1 mM Na3VO4, 10 μg/ml each of leupeptin and aprotinin, and 1 mM phenylmethylsulfonyl fluoride. To determine the state of Akt phosphorylation, the samples were separated on 10% SDS-PAGE gels, transferred to PVDF membrane and immunoblotted with anti-phosphoSer473-Akt antibody (Cell Signaling). The same membrane was stripped and reprobed with anti-Akt antibody (Cell Signaling). To determine the activity of caspase-3, the samples were separated on 15% SDS-PAGE gels and transferred to PVDF membranes, which were then sequentially probed with antibodies against cleaved caspase-3 (Asp175, Cell Signaling) and β-tubulin (Sigma)."}}, "note": "“Also recorded” adds a separate entry of the source.", "data": [{"molecule": "C[C@H](NC(c1cccc2[nH]c(=O)c(=O)[nH]c12)P(=O)(O)O)c1ccc(Br)cc1", "note": "(stereo partly shown) [NVP-AAM077]", "values": [{"measurement": "increase in total infarct volume compared with saline-treated animals", "setting": "[1]; 2.4 mg/kg i.v. 30 min before 1-h MCAo, 24 h after MCAo onset", "result": "67.0±17.9", "unit": "%"}, {"measurement": "neurological function (behavioral tests)", "setting": "[1]", "result": "trend toward poorer neurological function"}, {"measurement": "infarct area", "setting": "[1]", "result": "increased"}, {"measurement": "effect of co-administration on the glycine effect (infarct volume reduction)", "setting": "[2]", "result": "abolished; also recorded: prevented"}, {"measurement": "effect of co-administration on the glycine effect (infarct volume reduction)", "setting": "[2]; listed as NVP-AAM066", "result": "abolished the neuroprotection offered by glycine"}, {"measurement": "effect on OGD-induced neuronal apoptosis", "setting": "[3]", "result": "significantly enhanced OGD-induced neuronal apoptosis"}, {"measurement": "effect on the remainder (non-NR2B) of the synaptic NMDA currents", "setting": "[4]; NVP-AAM077 0.4 μM, n=5", "result": "largely eliminated"}, {"measurement": "effect on NMDA-induced reduction in Akt kinase activity (S473 dephosphorylation)", "setting": "[5]", "result": "slightly increased the NMDA-induced reduction in Akt activity"}]}, {"molecule": "C[C@@H](CN1CCC(Cc2ccccc2)CC1)[C@@H](O)c1ccc(O)cc1", "note": "(relative stereo) [Ro 25-6981, [R-(R*,S*)]-α-(4-Hydroxyphenyl)-β-methyl-4-(phenylmethyl)-1-piperidinepropanol]", "values": [{"measurement": "decrease of total infarct volume compared with saline-treated animals", "setting": "[1]; 6 mg/kg i.v. 30 min before 1-h MCAo, 24 h after MCAo onset", "result": "67.8±4.3", "unit": "%"}, {"measurement": "neurological function (behavioral tests)", "setting": "[1]", "result": "significant protective effect"}, {"measurement": "infarct area", "setting": "[1]", "result": "decreased"}, {"measurement": "effect of co-administration on the glycine effect (infarct volume reduction)", "setting": "[2]", "result": "resistant"}, {"measurement": "neuroprotection / total infarct volume compared with MCAo alone", "setting": "[2]; given 3 h after 1.5-h MCAo (4.5 h after stroke onset), MK801 1 mg/Kg, glycine 800 mg/Kg, Ro 25-6981 6 mg/Kg", "result": "did not provide any noticeable neuroprotection; also recorded: ineffectiveness"}, {"measurement": "effect on OGD-induced neuronal apoptosis", "setting": "[3]", "result": "drastically reduced"}, {"measurement": "effect on slow NMDA receptor-mediated component of mEPSCs", "setting": "[4]; -60 mV, zero added Mg2+, APV 50 μM, Ro 25-6981 0.5 μM", "result": "significantly reduced"}, {"measurement": "NR2B-containing receptor-mediated (Ro 25-6981-sensitive) component of synaptic NMDA currents", "setting": "[4]; Ro 25-6981 0.5 μM, n=5", "result": "32.4±3.6", "unit": "%"}]}]}
